Assay results taken from publication PMC9837800 (Journal of medicinal chemistry, 2022).

Key:
PKMYT1 [1] = biological target: T1, PKMYT1 (Homo sapiens, UniProt Q99640)
T1 sequence (Q99640 1-499): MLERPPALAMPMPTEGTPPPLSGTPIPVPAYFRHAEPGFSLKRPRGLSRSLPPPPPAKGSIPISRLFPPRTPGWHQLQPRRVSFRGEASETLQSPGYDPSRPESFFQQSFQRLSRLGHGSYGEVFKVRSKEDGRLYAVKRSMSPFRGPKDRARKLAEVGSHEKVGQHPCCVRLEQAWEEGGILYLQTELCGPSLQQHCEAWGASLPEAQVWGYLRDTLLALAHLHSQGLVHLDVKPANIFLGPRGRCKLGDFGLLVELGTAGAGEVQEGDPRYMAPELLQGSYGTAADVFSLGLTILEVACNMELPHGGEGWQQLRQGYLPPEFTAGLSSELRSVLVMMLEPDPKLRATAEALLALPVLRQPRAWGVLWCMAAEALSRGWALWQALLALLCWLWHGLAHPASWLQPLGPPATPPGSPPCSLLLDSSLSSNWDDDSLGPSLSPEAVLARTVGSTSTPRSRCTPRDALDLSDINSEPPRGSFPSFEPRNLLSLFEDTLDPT

in vitro [2] = conditions: human, Caco-2
in vitro [3] = conditions: human, hepatocytes
in vivo [4] = conditions: male, beagle, dog, plasma, iv, 0.5 mg/kg
in vivo [5] = conditions: male, Sprague-Dawley, rat, iv, 1 mg/kg
[6] = CD-1 mouse pharmacokinetic study; conditions: female, in vivo, iv, 1 mg/kg
in vivo [7] = conditions: male, cynomolgus monkey, plasma, iv, 0.5 mg/kg
[8] = tested on: OVCAR3 CCNE1 amplified xenograft; conditions: PO twice daily (BID), OVCAR3 model ref 6; cited from earlier work
PKMYT1 [9] = biological target: T1, PKMYT1; assay: Fluorescence polarization competitive displacement screen with Tracer 178; conditions: Tracer 178 binding probe

SMILES: Cc1ccccc1-n1c(N)c(C(N)=O)c2nc3ccccc3nc21 [Compound 2, reference compound]
- PKMYT1 inhibition in biochemical ADP release enzymatic assay (in words) (PKMYT1 [1]): inactive

SMILES: Cc1cc(O)ccc1-n1c(N)c(C(N)=O)c2nc3ccccc3nc21 [Compound 3, 2-amino-1-(4-hydroxy-2-methyl-phenyl)pyrrolo[3,2-b]quinoxaline-3-carboxamide]
- PKMYT1 inhibition in biochemical ADP release enzymatic assay (in words) (PKMYT1 [1]): inactive

SMILES: Cc1ccc(N)cc1-n1c(N)c(C(N)=O)c2nc3ccccc3nc21 [Compound 9, 2-amino-1-(5-amino-2-methyl-phenyl)pyrrolo[3,2-b]quinoxaline-3-carboxamide]
- PKMYT1 inhibition in biochemical ADP release enzymatic assay (in words) (PKMYT1 [1]): inactive

SMILES: NC(=O)c1c(N)n(-c2cccc3[nH]ccc23)c2nc3ccccc3nc12 [Compound 11, 2-amino-1-(1H-indol-4-yl)pyrrolo[3,2-b]quinoxaline-3-carboxamide]
- PKMYT1 inhibition in biochemical ADP release enzymatic assay (in words) (PKMYT1 [1]): inactive

SMILES: NC(=O)c1c(N)n(-c2cccc3[nH]nnc23)c2nc3ccccc3nc12 [Compound 12, 2-amino-1-(1H-benzotriazol-4-yl)pyrrolo[3,2-b]quinoxaline-3-carboxamide]
- PKMYT1 inhibition in biochemical ADP release enzymatic assay (in words) (PKMYT1 [1]): inactive

SMILES: NC(=O)c1c(N)n(-c2cccc3[nH]cnc23)c2nc3ccccc3nc12 [Compound 13, 2-amino-1-(1H-benzimidazol-4-yl)pyrrolo[3,2-b]quinoxaline-3-carboxamide]
- PKMYT1 inhibition in biochemical ADP release enzymatic assay (in words) (PKMYT1 [1]): inactive

SMILES: Cc1ccc(C(F)F)cc1-n1c(N)c(C(N)=O)c2nc3ccccc3nc21 [Compound 14, 2-amino-1-[5-(difluoromethyl)-2-methyl-phenyl]pyrrolo[3,2-b]quinoxaline-3-carboxamide]
- PKMYT1 inhibition in biochemical ADP release enzymatic assay (in words) (PKMYT1 [1]): inactive

SMILES: Cc1c(O)ccc(Cl)c1-n1c(N)c(C(N)=O)c2nc3ccccc3nc21 [Compound 17, 2-amino-1-(6-chloro-3-hydroxy-2-methyl-phenyl)pyrrolo[3,2-b]quinoxaline-3-carboxamide]
- Papp A→B (in vitro [2]): 14.1 ×10⁻⁶ cm/s

SMILES: NC(=O)c1c(N)n(-c2c(Cl)ccc(O)c2Cl)c2nc3ccccc3nc12 [Compound 18, 2-amino-1-(2,6-dichloro-3-hydroxy-phenyl)pyrrolo[3,2-b]quinoxaline-3-carboxamide]
- Papp A→B (in vitro [2]): 18.8 ×10⁻⁶ cm/s

SMILES: Cc1ccc(O)c(C)c1-n1c(N)c(C(N)=O)c2cc(Cl)cnc21 [Compound 55, (S)-2-amino-5-chloro-1-(3-hydroxy-2,6-dimethyl-phenyl)pyrrolo[2,3-b]pyridine-3-carboxamide]
- hepatocyte CLint (in vitro [3]): 4.5 µL/min/1e6 cells
- clearance at 24 h (in vivo [4]): 21.3 mL/min/kg
- clearance at 24 h (in vivo [5]): 25.6 mL/min/kg
- clearance at 24 h [6]: 59.2 mL/min/kg
- clearance at 24 h (in vivo [7]): 19.4 mL/min/kg

SMILES: Cc1cc2c(C(N)=O)c(N)n(-c3c(C)ccc(O)c3C)c2nc1C [RP-6306, (S)-2-amino-1-(3-hydroxy-2,6-dimethyl-phenyl)-5,6-dimethyl-pyrrolo[2,3-b]pyridine-3-carboxamide]
- maximum tolerated dose [8]: 20 mg/kg
- clearance at 24 h (in vivo [4]): 13.1 mL/min/kg
- clearance at 24 h [6]: 30.4 mL/min/kg

SMILES: Cc1nc(Nc2ncc(C(=O)Nc3c(C)cccc3Cl)s2)cc(N2CCN(CCO)CC2)n1 [dasatinib]
- result in focused screen of 560 known kinase inhibitors (PKMYT1 [9]): potent hits
